Test results published in patent US10759762B2, “Fluorescent synthetic retinoids” (High Force Research Limited, priority 2014, dated 2020).

Tests used:
[1] = Light stability of compound 9 by 1H NMR under standard laboratory light; assay type: physicochemical
Experimental: A ^1H NMR spectrum of compound 9 in DMSO-d6 was recorded after storage at ambient temperature in the absence of light (FIG. 7). The same sample of compound 9 was then exposed to standard laboratory light at a distance of 30 cm for 72 hours, and the ^1H NMR spectrum recorded (FIG. 8). Compound 9 is stable towards typical laboratory lighting over this time period, although a small proportion converts to a structurally similar enamine form. Compound 9 remains stable until around 16 day's exposure, where some indication of degradation becomes apparent. More significant degradation is observed after 22 day's exposure, although compound 9 still represents the major constituent of the sample (>60%).

TERA-2 cells [2] = assay: Immunocytochemical staining for nestin; assay type: cell-based
TERA-2 cells [3] = assay: Immunocytochemical staining for cytokeratin 8 (CK8); assay type: cell-based; details: 10 μM vs 1 μM
TERA-2 cells [4] = assay: Immunocytochemical staining for TUJ-1; assay type: cell-based; details: for TUJ-1 staining: 1 and 10 μM
Description: DMSO treated cells show only limited TUJ-1 staining.

TERA-2 cells [5] = assay: Immunocytochemical staining for Oct 4; assay type: cell-based
TERA-2 cells [6] = assay: Immunocytochemical staining for Sox 2; assay type: cell-based; details: 1 and 10 μM
TERA-2 cells [7] = assay: Flow cytometry, stem cell marker SSEA-3; assay type: cell-based; details: for expression of SSEA-3 compared to DMSO treated cells: flow cytometry
TERA-2 cells [8] = assay: Flow cytometry, stem cell marker TRA160; assay type: cell-based; details: for expression of TRA160 compared to DMSO treated cells: flow cytometry
TERA-2 cells [9] = assay: Flow cytometry, early neuronal marker A2B5; assay type: cell-based
Description: ATRA treated cells express higher levels of A2B5 followed by EC23® and compound 9.

cell populations = assay: Phase contrast images of treated cell populations; assay type: cell-based
Description: In cell populations treated with DMSO, the cells are small, and densely packed together.

cells = assay: MTT cell viability analysis; assay type: cell-based; details: compared to DMSO
[10] = Initial fluorescence characterisation (absorption and emission spectra in solvents); assay type: physicochemical
Description: Absorption and emission spectra of 9 were obtained in a variety of solvents (FIG. 3 and FIG. 4). […] The fluorescence emission wavelength is also highly dependent on solvent polarity, with a significant red shift occurring in polar solvents when compared to non polar solvents.
This absorption band peaks at around 379 nm, and trails into the indigo/blue (440 nm).

[11] = background statement; cited from earlier work
[12] = background statement; cited from earlier work; remark: listed apart in the source
[13] = Stability on exposure to light of wavelength 300 to 400 nm; assay type: physicochemical; details: 3 days exposure to light of wavelength 300 to 400 nm
Description: Retinoid compounds such as ATRA are unstable upon storage. In particular, such compounds are susceptible to photoisomerisation and degradation upon exposure to light in the 300 to 400 nm region. […] Generally the compounds of formula 1 have far better stability than retinoids such as ATRA, in particular the compounds of formula 1 are far less susceptible to photoisomerisation. Generally, following 3 days exposure to light having a wavelength of 300 to 400 nm, the compounds of the present invention undergo far less isomerisation and degradation than ATRA. Typically at least 60% by weight of the compounds of the present invention remain (compared to less than 40% by weight ATRA) following 3 days exposure to light of wavelength 300 to 400 nm.

[14] = 1 M treatment (so in the source)
[15] = both 1 and 10 M treatments (so in the source)

In the case of CC(C)N1CCC(C)(C)c2cc(C#Cc3ccc(C(=O)O)cc3)ccc21 [compound 9, 4-2-[4,4-Dimethyl-1-(propan-2-yl)-1,2,3,4-tetrahydroquinolin-6-yl]ethynylbenzoic acid], the “exposure time until which compound remains stable (first indication of degradation)” value ([1]; DMSO-d6, standard laboratory light) is reported as “around 16 day”, the “stability towards typical laboratory lighting” value ([1]; DMSO-d6, standard laboratory light at 30 cm, 72 hours, ambient temperature) is reported as “stable” and the “share of the sample still compound 9 (major constituent)” value ([1]; after 22 day's exposure to laboratory light) is reported as over 60%. The nestin staining (TERA-2 cells [2]; 10 μM treatment) was “positive for nestin with staining possibly to a lesser extent”, the nestin staining (TERA-2 cells [2]; [14]) was “positive for nestin” and the “CK8 staining intensity in 10 μM samples compared with 1 μM samples” value (TERA-2 cells [3]) was “slightly brighter”. The “TUJ-1 staining with 10 μM treatment relative to 1 μM” value (TERA-2 cells [4]) was “increased staining”, the TUJ-1 staining (TERA-2 cells [4]) was “significant staining” and the “Oct 4 staining” value (TERA-2 cells [5]; 1 μM) was “do not exhibit staining”. For the same compound, the “Oct 4 staining” value (TERA-2 cells [5]; 10 μM) was “do not exhibit staining”, the “Sox 2 staining compared to DMSO treated cells” value (TERA-2 cells [6]) was “significantly reduced staining” and the “level of SSEA-3 relative to ATRA and EC23” value (TERA-2 cells [7]; [15]) was “higher levels”. For the same compound, the “expression of SSEA-3 compared to DMSO treated cells” value (TERA-2 cells [7]) was “significantly decreased”, the “level of TRA160 relative to ATRA and EC23” value (TERA-2 cells [8]; [15]) was “slightly higher levels” and the “expression of TRA160 compared to DMSO treated cells” value (TERA-2 cells [8]) was “significantly decreased”. For the same compound, the “expression of A2B5 compared to DMSO treated cells” value (TERA-2 cells [9]) was “significantly increased”, the “cell population appearance in contrast to DMSO (small, densely packed)” value (shortened to “cell population appearance in contrast”) (cell populations) was “less dense, and cells are much more spread out” and the MTT cell viability (cells; 1 μM treatment) was “comparable viability to DMSO”. The MTT cell viability (cells; 10 μM treatment) was “comparable viability to DMSO” and the “lowest concentration at which fluorescence was easily detected” value ([10]; in solvents) was 1 nM.
With CC1(C)CCC(C)(C)c2cc(C#Cc3ccc(C(=O)O)cc3)ccc21 [EC23®] the nestin staining (TERA-2 cells [2]; 10 μM treatment) was “positive for nestin with staining possibly to a lesser extent”, the nestin staining (TERA-2 cells [2]; [14]) was “positive for nestin” and the “CK8 staining intensity in 10 μM samples compared with 1 μM samples” value (TERA-2 cells [3]) was “less intense”. The “TUJ-1 staining with 10 μM treatment relative to 1 μM” value (TERA-2 cells [4]) was “increased staining”, the TUJ-1 staining (TERA-2 cells [4]) was “significant staining” and the “Oct 4 staining” value (TERA-2 cells [5]; 1 μM) was “do not exhibit staining”. For the same compound, the “Oct 4 staining” value (TERA-2 cells [5]; 10 μM) was “do not exhibit staining”, the “Sox 2 staining compared to DMSO treated cells” value (TERA-2 cells [6]) was “significantly reduced staining” and the “expression of SSEA-3 compared to DMSO treated cells” value (TERA-2 cells [7]) was “significantly decreased”. For the same compound, the “expression of TRA160 compared to DMSO treated cells” value (TERA-2 cells [8]) was “significantly decreased”, the “expression of A2B5 compared to DMSO treated cells” value (TERA-2 cells [9]) was “significantly increased” and the “cell population appearance in contrast” value (cell populations) was “less dense, and cells are much more spread out”. For the same compound, the MTT cell viability (cells; 1 μM treatment) was “comparable viability to DMSO”, the MTT cell viability (cells; 10 μM treatment) was “comparable viability to DMSO” and the “stability on exposure to light” value [11] was “good stability”. The “susceptibility to metabolic degradation” value [12] was “not be susceptible”.
With CC1=C(/C=C/C(C)=C/C=C/C(C)=C/C(=O)O)C(C)(C)CCC1 [ATRA, All Trans-Retinoic Acid] the “amount of compound remaining” value [13] was “less than 40 % by weight”, the nestin staining (TERA-2 cells [2]; 10 μM treatment) was “positive for nestin” and the nestin staining (TERA-2 cells [2]; [14]) was “positive for nestin”. For the same compound, the “CK8 staining intensity in 10 μM samples compared with 1 μM samples” value (TERA-2 cells [3]) was “less intense”, the “TUJ-1 staining with 10 μM treatment relative to 1 μM” value (TERA-2 cells [4]) was “increased staining” and the TUJ-1 staining (TERA-2 cells [4]) was “significant staining”. The “Oct 4 staining” value (TERA-2 cells [5]; 1 μM) was “staining is also evident”, the “Oct 4 staining” value (TERA-2 cells [5]; 10 μM) was “do not exhibit staining” and the “Sox 2 staining compared to DMSO treated cells” value (TERA-2 cells [6]) was “significantly reduced staining”. For the same compound, the “expression of SSEA-3 compared to DMSO treated cells” value (TERA-2 cells [7]) was “significantly decreased”, the “expression of TRA160 compared to DMSO treated cells” value (TERA-2 cells [8]) was “significantly decreased” and the “expression of A2B5 compared to DMSO treated cells” value (TERA-2 cells [9]) was “significantly increased”. The “level of A2B5 relative to the other retinoids” value (TERA-2 cells [9]) was “higher levels”, the “cell population appearance in contrast” value (cell populations) was “less dense, and cells are much more spread out” and the MTT cell viability (cells; 1 μM treatment) was “comparable viability to DMSO”. For the same compound, the MTT cell viability (cells; 10 μM treatment) was “comparable viability to DMSO” and the “stability on exposure to light” value [11] was “poor stability”.
For CC1=CC(C)(C)c2cc(C#Cc3ccc(C(=O)O)cc3)ccc2N1C(C)C [compound 17, 4-2-[2,4,4-Trimethyl-1-(propan-2-yl)-1,4-dihydroquinolin-6-yl]ethynyl benzoic acid], the “peak of maximal absorption band” value ([10]; chloroform (FIG. 5)) was “around 379 nm”.
